Three compounds from ChEMBL document CHEMBL5257092, “Synthesis and biological evaluation of biaryl alkyl ethers as inhibitors of IDO1” (Bioorg Med Chem Lett, 2023) can be followed below.

In data set [1] the target is Indoleamine 2,3-dioxygenase 1 (Homo sapiens, UniProt P14902). Briefly: Inhibition of IDO1 (unknown origin) expressed in human HeLa cells. The format is cell-based.
The target in data set [2] is Tryptophan 2,3-dioxygenase (Homo sapiens, UniProt P48775). As to the kind of experiment: Inhibition of TDO (unknown origin) expressed in HEK cells. The format is cell-based.
Chain of Tryptophan 2,3-dioxygenase (P48775 whole entry): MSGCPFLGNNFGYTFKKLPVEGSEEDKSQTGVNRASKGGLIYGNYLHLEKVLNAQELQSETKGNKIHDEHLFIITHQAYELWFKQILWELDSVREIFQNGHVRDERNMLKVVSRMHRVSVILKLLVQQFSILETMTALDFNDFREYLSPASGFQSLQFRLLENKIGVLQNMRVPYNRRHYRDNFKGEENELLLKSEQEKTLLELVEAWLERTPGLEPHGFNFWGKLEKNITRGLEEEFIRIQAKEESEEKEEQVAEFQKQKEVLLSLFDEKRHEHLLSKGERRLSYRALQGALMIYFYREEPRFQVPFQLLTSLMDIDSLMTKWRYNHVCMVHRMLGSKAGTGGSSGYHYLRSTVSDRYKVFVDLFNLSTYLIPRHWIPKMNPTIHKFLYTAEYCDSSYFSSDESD
Data set [3] can be described thus: Metabolic stability in human liver microsomes assessed as compound remaining at 0.5 uM incubated for 10 mins relative to control. Particulars: for remaining at 10 min, 0.5 µM: liver microsomes, read-out: Stability. It counts as ADME, Microsome. (Liver microsomes are vesicles of endoplasmic reticulum, rich in cytochrome P450 enzymes.)
The nature of data set [4]: Metabolic stability in rat liver microsomes assessed as compound remaining at 0.5 uM incubated for 10 mins relative to control. Particulars: for remaining at 10 min, 0.5 µM: liver microsomes, read-out: Stability. The format is ADME, Microsome.
Data set [5] can be described thus: Metabolic stability in mouse liver microsomes assessed as compound remaining at 0.5 uM incubated for 10 mins relative to control. It counts as ADME, Microsome. The note with it: for remaining at 10 min, 0.5 µM: liver microsomes, read-out: Stability.
Data set [6] has as its target T1, Cytochrome P450 2C9 (Homo sapiens, UniProt P11712). As to the kind of experiment: Inhibition of CYP2C9 (unknown origin). It counts as ADME.
The next data set concerns the target T2, Cytochrome P450 1A2 (Homo sapiens, UniProt P05177).
T2 sequence (P05177 whole entry): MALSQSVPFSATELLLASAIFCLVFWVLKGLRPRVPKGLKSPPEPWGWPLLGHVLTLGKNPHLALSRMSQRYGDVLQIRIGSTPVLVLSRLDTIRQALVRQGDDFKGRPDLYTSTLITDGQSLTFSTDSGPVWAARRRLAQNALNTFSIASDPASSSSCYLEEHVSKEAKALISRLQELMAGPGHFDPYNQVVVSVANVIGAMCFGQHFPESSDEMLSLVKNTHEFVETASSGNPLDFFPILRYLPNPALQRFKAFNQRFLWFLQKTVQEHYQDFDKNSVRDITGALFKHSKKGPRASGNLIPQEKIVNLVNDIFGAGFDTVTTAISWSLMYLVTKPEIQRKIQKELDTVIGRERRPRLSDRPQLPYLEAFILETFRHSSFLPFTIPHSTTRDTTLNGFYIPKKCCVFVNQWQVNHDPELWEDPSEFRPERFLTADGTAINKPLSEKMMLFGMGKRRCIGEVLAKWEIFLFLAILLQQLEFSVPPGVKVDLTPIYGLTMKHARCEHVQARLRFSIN
Briefly: Inhibition of human CYP1A2. The format is ADME.

A further data set concerns the target Cytochrome P450 2C19 (Homo sapiens, UniProt P33261). Briefly: Inhibition of human CYP2C19. The format is ADME.
For data set [7], the target named is T1, Cytochrome P450 2C9. As to the kind of experiment: Inhibition of human CYP2C9. It counts as ADME.
The next data set concerns the target Cytochrome P450 2D6 (Homo sapiens, UniProt P10635). Briefly: Inhibition of human CYP2D6. It counts as ADME.
The target of the next data set is Cytochrome P450 3A4 (Homo sapiens, UniProt P08684). Briefly: Inhibition of human CYP3A4. The format is ADME.
Chain of Cytochrome P450 3A4 (P08684 whole entry): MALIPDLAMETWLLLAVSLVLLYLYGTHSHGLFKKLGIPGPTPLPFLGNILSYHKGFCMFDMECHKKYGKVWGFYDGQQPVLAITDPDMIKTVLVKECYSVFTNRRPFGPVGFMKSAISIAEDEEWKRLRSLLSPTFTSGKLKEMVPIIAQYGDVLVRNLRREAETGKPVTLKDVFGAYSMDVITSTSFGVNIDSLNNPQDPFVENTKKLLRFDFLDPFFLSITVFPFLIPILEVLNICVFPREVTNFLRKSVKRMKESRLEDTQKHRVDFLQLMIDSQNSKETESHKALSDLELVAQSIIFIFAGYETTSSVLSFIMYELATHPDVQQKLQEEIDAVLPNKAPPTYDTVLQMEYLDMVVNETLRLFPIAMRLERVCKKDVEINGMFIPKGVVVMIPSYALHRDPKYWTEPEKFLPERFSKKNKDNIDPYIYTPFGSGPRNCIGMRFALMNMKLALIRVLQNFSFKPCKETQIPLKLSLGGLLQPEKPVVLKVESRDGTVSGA
The target of the next data set is T3, Cytochrome P450 2C8 (Homo sapiens, UniProt P10632).
T3 sequence (P10632 whole entry): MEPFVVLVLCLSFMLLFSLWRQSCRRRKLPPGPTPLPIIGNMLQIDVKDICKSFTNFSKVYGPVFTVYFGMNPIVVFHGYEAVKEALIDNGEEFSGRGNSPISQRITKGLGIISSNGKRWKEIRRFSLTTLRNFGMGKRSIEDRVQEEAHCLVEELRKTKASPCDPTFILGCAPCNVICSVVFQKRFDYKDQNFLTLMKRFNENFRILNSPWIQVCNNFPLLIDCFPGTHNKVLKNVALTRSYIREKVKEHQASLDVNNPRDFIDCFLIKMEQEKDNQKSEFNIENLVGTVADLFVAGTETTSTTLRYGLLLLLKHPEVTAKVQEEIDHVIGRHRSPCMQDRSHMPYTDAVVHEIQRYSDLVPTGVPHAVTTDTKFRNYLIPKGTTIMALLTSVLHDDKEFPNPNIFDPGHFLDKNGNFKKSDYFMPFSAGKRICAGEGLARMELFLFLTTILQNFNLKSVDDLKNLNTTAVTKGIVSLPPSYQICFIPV
Briefly: Inhibition of human CYP2C8. The format is ADME.

The target in data set [8] is T4, Cytochrome P450 2B6 (Homo sapiens, UniProt P20813).
T4 sequence (P20813 whole entry): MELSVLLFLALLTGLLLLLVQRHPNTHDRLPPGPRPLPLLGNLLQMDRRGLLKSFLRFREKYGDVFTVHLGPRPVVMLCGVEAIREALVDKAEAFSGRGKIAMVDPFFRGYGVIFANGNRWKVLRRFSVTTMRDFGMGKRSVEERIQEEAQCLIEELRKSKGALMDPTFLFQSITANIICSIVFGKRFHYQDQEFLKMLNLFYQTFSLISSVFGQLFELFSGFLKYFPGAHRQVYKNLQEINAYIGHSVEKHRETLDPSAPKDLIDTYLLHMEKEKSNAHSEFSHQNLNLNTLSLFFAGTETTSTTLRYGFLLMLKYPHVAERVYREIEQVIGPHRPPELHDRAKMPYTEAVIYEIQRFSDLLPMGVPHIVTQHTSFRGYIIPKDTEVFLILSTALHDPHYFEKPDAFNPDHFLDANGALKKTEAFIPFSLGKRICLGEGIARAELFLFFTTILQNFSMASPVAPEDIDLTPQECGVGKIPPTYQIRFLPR
Briefly: Inhibition of human CYP2B6. It counts as ADME.

The nature of data set [9]: Stability in human liver microsomes assessed as half life. It counts as ADME, Microsome.
Data set [10] in a line: Stability in rat liver microsomes assessed as half life. It counts as ADME, Microsome.
The nature of data set [11]: Stability in mouse liver microsomes assessed as half life. The format is ADME, Microsome.
Data set [12] can be described thus: Stability in monkey liver microsomes assessed as half life. It counts as ADME, Macaca mulatta, Microsome. Particulars: rhesus monkey.
Data set [13] is described as follows: Stability in dog liver microsomes assessed as half life. It counts as ADME, Canis lupus familiaris, Microsome.
Data set [14] deals with T4, Cytochrome P450 2B6. As to the kind of experiment: Inhibition of CYP2B6 (unknown origin). It counts as ADME.
The target of data set [15] is Voltage-gated inwardly rectifying potassium channel KCNH2 (Homo sapiens, UniProt Q12809). As to the kind of experiment: (§1) Inhibition of hERG at 10 uM relative to control. The format is toxicity. The note with it: 10 µM. Background: hERG is a cardiac potassium channel; its block is linked to QT prolongation.
A further data set concerns the target hERG (Homo sapiens, UniProt Q12809). Described as §1. It counts as toxicity.

The structures appear in SMILES notation.

Chain of Indoleamine 2,3-dioxygenase 1 (P14902 whole entry): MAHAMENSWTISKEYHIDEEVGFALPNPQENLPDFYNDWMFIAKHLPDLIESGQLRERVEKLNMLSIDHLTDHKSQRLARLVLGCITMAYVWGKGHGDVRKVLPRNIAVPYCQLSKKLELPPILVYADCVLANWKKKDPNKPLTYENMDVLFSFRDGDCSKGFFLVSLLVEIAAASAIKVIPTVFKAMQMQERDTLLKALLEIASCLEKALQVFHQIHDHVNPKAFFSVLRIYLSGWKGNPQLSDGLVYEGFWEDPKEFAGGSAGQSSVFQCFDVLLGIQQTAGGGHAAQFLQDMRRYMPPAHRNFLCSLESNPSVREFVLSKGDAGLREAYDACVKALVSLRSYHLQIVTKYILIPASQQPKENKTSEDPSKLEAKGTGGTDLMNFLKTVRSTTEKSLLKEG
T1 sequence (P11712 whole entry): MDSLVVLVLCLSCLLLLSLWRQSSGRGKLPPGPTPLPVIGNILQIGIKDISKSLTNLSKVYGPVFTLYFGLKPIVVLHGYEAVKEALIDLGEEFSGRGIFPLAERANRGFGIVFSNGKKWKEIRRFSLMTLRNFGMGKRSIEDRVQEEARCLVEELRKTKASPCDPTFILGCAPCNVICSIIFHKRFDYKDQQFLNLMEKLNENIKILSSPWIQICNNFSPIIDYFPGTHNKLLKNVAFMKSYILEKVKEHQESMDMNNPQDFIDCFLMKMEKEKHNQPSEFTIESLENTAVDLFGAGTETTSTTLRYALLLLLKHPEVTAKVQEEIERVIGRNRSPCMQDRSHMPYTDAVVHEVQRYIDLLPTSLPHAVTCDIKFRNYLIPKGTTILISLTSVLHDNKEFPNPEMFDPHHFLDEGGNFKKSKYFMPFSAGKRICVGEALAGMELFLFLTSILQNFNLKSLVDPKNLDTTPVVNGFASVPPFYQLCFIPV
Chain of Cytochrome P450 2C19 (P33261 whole entry): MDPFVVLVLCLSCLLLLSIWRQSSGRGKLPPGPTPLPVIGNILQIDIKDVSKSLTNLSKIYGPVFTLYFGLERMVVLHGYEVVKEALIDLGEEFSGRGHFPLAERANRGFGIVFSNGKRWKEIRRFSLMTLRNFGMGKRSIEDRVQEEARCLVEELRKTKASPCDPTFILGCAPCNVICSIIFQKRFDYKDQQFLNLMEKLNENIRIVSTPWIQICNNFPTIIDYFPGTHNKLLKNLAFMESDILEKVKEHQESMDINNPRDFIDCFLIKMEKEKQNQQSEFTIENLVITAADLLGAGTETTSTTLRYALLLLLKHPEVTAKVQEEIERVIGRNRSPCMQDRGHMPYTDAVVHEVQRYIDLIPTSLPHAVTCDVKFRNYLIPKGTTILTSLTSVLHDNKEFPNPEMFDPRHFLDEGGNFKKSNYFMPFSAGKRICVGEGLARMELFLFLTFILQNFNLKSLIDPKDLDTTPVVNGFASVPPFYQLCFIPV
Chain of Cytochrome P450 2D6 (P10635 whole entry): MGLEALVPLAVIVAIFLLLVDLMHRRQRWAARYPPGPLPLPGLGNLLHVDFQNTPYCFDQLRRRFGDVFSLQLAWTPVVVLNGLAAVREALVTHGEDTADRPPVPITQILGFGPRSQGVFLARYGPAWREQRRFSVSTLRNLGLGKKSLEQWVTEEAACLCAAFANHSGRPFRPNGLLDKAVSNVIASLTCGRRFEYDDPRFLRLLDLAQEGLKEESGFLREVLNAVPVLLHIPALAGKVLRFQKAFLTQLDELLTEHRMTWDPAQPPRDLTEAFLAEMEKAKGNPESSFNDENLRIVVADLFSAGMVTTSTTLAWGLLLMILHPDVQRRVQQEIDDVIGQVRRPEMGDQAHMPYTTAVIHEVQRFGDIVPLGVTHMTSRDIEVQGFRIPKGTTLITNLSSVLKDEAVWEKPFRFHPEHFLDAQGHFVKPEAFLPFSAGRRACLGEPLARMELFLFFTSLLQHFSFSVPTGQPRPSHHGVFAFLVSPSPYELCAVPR
Chain of hERG (Q12809 whole entry): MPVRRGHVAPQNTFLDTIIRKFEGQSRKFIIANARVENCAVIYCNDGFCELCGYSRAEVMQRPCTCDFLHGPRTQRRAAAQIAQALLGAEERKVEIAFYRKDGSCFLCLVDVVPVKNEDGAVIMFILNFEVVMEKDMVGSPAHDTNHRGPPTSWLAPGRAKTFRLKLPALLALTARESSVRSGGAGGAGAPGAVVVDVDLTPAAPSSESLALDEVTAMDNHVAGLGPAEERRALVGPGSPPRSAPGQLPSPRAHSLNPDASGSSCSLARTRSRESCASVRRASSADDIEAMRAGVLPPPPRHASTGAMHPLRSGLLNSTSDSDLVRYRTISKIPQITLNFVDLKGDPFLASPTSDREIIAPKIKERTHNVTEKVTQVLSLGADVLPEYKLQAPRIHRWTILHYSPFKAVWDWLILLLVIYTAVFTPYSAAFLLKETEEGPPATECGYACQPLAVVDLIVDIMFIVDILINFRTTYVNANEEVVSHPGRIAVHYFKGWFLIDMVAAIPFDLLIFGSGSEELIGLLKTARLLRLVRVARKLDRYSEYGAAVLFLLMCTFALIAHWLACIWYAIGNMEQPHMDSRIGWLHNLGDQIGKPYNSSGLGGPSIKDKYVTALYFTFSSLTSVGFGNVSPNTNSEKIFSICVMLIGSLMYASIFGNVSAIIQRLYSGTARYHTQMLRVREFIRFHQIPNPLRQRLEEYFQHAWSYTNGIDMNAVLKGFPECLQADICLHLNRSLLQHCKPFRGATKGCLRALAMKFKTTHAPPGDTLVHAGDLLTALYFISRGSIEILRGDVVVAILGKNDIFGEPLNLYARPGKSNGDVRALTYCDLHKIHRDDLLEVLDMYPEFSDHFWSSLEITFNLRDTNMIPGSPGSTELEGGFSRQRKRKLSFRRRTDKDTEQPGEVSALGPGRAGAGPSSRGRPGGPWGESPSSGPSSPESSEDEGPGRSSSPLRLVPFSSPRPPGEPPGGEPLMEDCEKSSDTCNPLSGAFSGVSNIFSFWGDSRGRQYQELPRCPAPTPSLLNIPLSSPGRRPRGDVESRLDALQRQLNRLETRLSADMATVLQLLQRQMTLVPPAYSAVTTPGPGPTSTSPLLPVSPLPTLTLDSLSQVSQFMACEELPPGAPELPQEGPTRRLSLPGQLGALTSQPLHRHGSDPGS

What is called IC50 is the point on the concentration scale where inhibition reaches its midpoint. The term half-life denotes the time needed for the level to fall by half in the phase considered. For the compound `Cc1ccc(NC(=O)Nc2cc(-c3ccccc3-c3nnn[nH]3)ccc2N(CC(C)C)CC(C)C)cc1`, the IC50 in data set [1] was 0.007 µM; in data set [2], over 7.5 µM; against Cytochrome P450 2C9 [6], 2.7 µM; on Cytochrome P450 1A2 it was 9.5 µM; against Cytochrome P450 2C19, 8.7 µM; at Cytochrome P450 2C9 [7], 2.7 µM. Besides, the IC50 against Cytochrome P450 2D6 came out at 18 µM; against Cytochrome P450 3A4, 7.8 µM; at Cytochrome P450 2C8, 9.2 µM; against Cytochrome P450 2B6 [8] it was 19 µM. Moreover, the remaining at 10 min, 0.5 µM in [3] amounted to 37%; in [4], 60%; in [5], 33%. Also, the half-life was found to be 9.1 min in [9]; 22 min in data set [10]; 6.6 min in data set [11]; 4 min in data set [12]; 11 min in [13].

On to `Cc1ccc(NC(=O)Nc2cc(-c3ccccc3-c3nc(=O)[nH]o3)cc3c2OCCCC3c2ccccc2)cc1` (stereo in doubt; 20), for which the IC50 in data set [1] is 0.0046 µM; in data set [2] (hek), over 6 µM; at Cytochrome P450 2B6 [14], 0.78 µM. For the same compound, the Stability was 73% in [3] (microsomes, 10 min, 0.5 µM); 38% in data set [4] (microsomes, 10 min, 0.5 µM); 40% in data set [5] (microsomes, 10 min, 0.5 µM). Further, the “inhibition (INH)” value in data set [15] is listed as 18%.

As usually defined, the inhibition is the percentage by which the read-out fell short of the control. On to `Cc1ccc(NC(=O)Nc2cc(-c3ccccc3-c3nn[nH]n3)cc3c2OCCCC3c2ccccc2)cc1` (stereo in doubt; 21), for which the half-maximal inhibitory concentration (IC50) was 0.0036 µM in [1]; over 6 µM in data set [2]; 3.7 µM against Cytochrome P450 2C9 [6]; over 20 µM on Cytochrome P450 1A2; 6.7 µM at Cytochrome P450 2C19; 3.7 µM against Cytochrome P450 2C9 [7]. For the same compound, the IC50 was over 20 µM on Cytochrome P450 2D6, 8.4 µM on Cytochrome P450 3A4, 18 µM on Cytochrome P450 2C8 and 17 µM on Cytochrome P450 2B6 [8]. Besides, the results for the remaining at 10 min, 0.5 µM in data set [3], in [4] and in data set [5] were 70%, 92% and 84%, respectively. At 10 µM the inhibition at hERG was 41%. Besides, the half-life in data set [9] was 18 min; in data set [10], 54 min; in data set [11] it was 25 min; in data set [12] it was 7.4 min; in [13], 22 min.
